From article PMC8175240, “Integrase-derived peptides together with CD24-targeted lentiviral particles inhibit the growth of CD24 expressing cancer cells” (Oncogene, 2021)
≈ marks a conversion by molar mass, not a printed value. Residues, ends and D or L forms follow the SMILES beside them.

Tests used:
[1] = Solubility of IN-derived peptides in PBS; type: physicochemical; details: for Solubility: at 0 min, verified at 60 min, LC-MS
Description: (§1) Analytic HPLC-MS was performed using an Agilent 1260 series Liquid Chromatography/Mass Selective Detector (MSD) equipped with an electrospray interface and a UV diode array detector. Analyses were performed on an ACE C8, 50 × 3.0 mm, 3 µm column, with an isocratic 0.1% formic acid/ACN eluent, at a rate of 1 ml/min over a period of 5 min. UV absorption was measured at 280 nm, 220 nm, and 215–395 nm. MS analysis was performed with ESI (electron spray ionization) with a positive ionization method.
(§2) Four reaction systems were prepared; INS and INR2 in human plasma, INS and INR2 in rat plasma (Supplementary Table 2). Freshly prepared 10 mg/ml stock solution of the peptides was injected into plasma or PBS solution (1:1). The mixture was diluted with methanol to precipitate the plasma proteins. The samples were filtered through PTFE 0.45 µm filters and run in LC-MS. Samples were taken at the following times: 0, 15, 30, 60, 120, 240, and 480 min and after 24 h.
Plasma solubility was determined at 0 min and was verified at 60 min (if no degradation was observed).

[2] = Stability test in human plasma; type: in vitro ADME; details: for Analyte Remaining % / Concentration calculated from LC-MS data: human plasma, 10 mg/ml stock into plasma 1:1, LC-MS; for Concentration calculated from LC-MS data: methanol precipitation, 0.45 µm filtration; for Stability: rat and human plasma
Description: as §1, §2

[3] = Stability test in rat plasma; type: in vitro ADME; details: for Analyte Remaining %: 10 mg/ml stock into plasma 1:1, LC-MS; for Concentration calculated from LC-MS data: 10 mg/ml stock into plasma 1:1, methanol precipitation, 0.45 µm filtration
Description: as §1, §2

H1975 lung cancer cells = experiment: Cytotoxicity of peptides without lentiviral particles, MTT; type: cell-based, human; details: peptide alone, three times over ten days
Description: H1975 lung cancer cells were treated three times over the course of 10 days (on days 2, 4, and 7) with different concentrations of the tested peptides. Following ten days of incubation, cells were analyzed for potential toxicity using a quantitative cell viability test, the MTT assay.

## CC[C@H](C)[C@H](NC(=O)[C@H](Cc1ccccc1)NC(=O)[C@@H](NC(=O)[C@H](C)NC(=O)[C@H](CCSC)NC(=O)[C@H](CCC(N)=O)NC(=O)[C@@H](NC(=O)[C@H](C)NC(=O)[C@@H](NC(=O)[C@@H](N)Cc1c[nH]c2ccccc12)[C@@H](C)O)C(C)C)C(C)C)C(=O)N[C@@H](Cc1c[nH]cn1)C(=O)N[C@@H](CC(N)=O)C(=O)N[C@@H](Cc1ccccc1)C(=O)N[C@@H](CCCCN)C(=O)N[C@@H](CCCNC(=N)N)C(=O)N[C@@H](CCCCN)C(=O)O [INS] (H-WTAVQMAVFIHNFKRK-OH)
[1]; % of 5 mg/mL sample
  Solubility: 89.2%
[1]; from 5 mg/mL sample (10 mg/ml stock into PBS 1:1), methanol dilution, PTFE 0.45 µm filtration
  Solubility: 4.46 mg/mL (≈ 2260 µM)
[1]; rat and human plasma
  Solubility (in words): highly soluble
[2]; 0 h
  Analyte Remaining %: 65.7%
  Concentration calculated from LC-MS data: 3290 µg/mL
[2]; 0.25 h
  Analyte Remaining %: 60.9%
  Concentration calculated from LC-MS data: 3040 µg/mL
[2]; 0.5 h
  Analyte Remaining %: 71.1%
  Concentration calculated from LC-MS data: 3590 µg/mL
[2]; 1 h
  Analyte Remaining %: 58.4%
  Concentration calculated from LC-MS data: 2920 µg/mL
[2]; 2 h
  Analyte Remaining %: 62.7%
  Concentration calculated from LC-MS data: 3130 µg/mL
[2]; 4 h
  Analyte Remaining %: 62.2%
  Concentration calculated from LC-MS data: 3110 µg/mL
[2]; 8 h
  Analyte Remaining %: 44.2%
  Concentration calculated from LC-MS data: 2210 µg/mL
[2]; 24 h
  Analyte Remaining %: 23.8%
  Concentration calculated from LC-MS data: 1190 µg/mL
[2]; after 8 h
  Stability: 40%
[2]; after 24 h
  Stability: ~ 25%
[3]; 0 h
  Analyte Remaining %: 80.3%
  Concentration calculated from LC-MS data: 4010 µg/mL
[3]; 0.25 h
  Analyte Remaining %: 68.2%
  Concentration calculated from LC-MS data: 3410 µg/mL
[3]; 0.5 h
  Analyte Remaining %: 65.3%
  Concentration calculated from LC-MS data: 3260 µg/mL
[3]; 1 h
  Analyte Remaining %: 58.9%
  Concentration calculated from LC-MS data: 2940 µg/mL
[3]; 2 h
  Analyte Remaining %: 50.5%
  Concentration calculated from LC-MS data: 2530 µg/mL
[3]; 4 h
  Analyte Remaining %: 38.6%
  Concentration calculated from LC-MS data: 1930 µg/mL
[3]; 8 h
  Analyte Remaining %: 36.1%
  Concentration calculated from LC-MS data: 1800 µg/mL
[3]; 24 h
  Analyte Remaining %: 14.8%
  Concentration calculated from LC-MS data: 740 µg/mL
H1975 lung cancer cells
  Effect on lung cancer cell viability: no effect
